Reference: patent US20230183224A1, “BEZOXAZINE DERIVATIVES USEFUL AS MONOACYLGLYCEROL LIPASE INHIBITORS” (Hoffmann-La Roche Inc., priority 2017, published 2023)

Target: T1, MAGL (recombinant wild-type) (Homo sapiens, UniProt Q99685)
T1 sequence (Q99685 1-303): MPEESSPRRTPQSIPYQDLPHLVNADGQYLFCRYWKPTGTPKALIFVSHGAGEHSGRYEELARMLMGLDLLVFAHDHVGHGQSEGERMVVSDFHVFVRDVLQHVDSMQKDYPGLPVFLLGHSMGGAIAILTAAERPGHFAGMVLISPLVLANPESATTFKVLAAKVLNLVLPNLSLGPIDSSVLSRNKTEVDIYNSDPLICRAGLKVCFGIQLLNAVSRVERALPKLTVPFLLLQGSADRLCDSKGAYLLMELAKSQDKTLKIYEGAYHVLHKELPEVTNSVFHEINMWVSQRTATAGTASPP
Assay: MAGL inhibitory activity, hydrolysis of 4-nitrophenylacetate to 4-nitrophenol (absorbance at 405 nm)
Assay type: biochemical
Conditions: 1 nM MAGL, 300 μM 4-nitrophenylacetate, 15 min preincubation at RT, slope of absorbance at 405 nm between 5 and 80 min
Description: Compounds were profiled for MAGL inhibitory activity by measuring the enzymatic activity of MAGL by following the hydrolysis of 4-nitorphenylacetate resulting in 4-nitrophenol, which absorbs at 405-412 nm (G. G. Muccioli, G. Labar, D. M. Lambert, Chem. Bio. Chem. 2008, 9, 2704-2710).
The assay was carried out in 384 well assay plates (black with clear bottom, non-binding surface treated, Corning Ref. 3655) in a total volume of 40 μL. Compound dilutions were made in 100% DMSO (VWR Chemicals 23500.297) in a polypropylene plate in 3-fold dilution steps to give a final concentration range in the assay from 25 μM to 1.7 nM. 1 μL compound dilutions (100% DMSO) were added to 19 μL MAGL (recombinant wild-type) in assay buffer (50 mM TRIS (GIBCO, 15567-027), 1 mM EDTA (Fluka, 03690-100 ml)). The plate was shaked for 1 min at 2000 rpm (Variomag Teleshake) and then incubated for 15 min at RT. To start the reaction, 20 μL 4-Nitrophenlyacetate (Sigma N-8130) in assay buffer with 6% EtOH was added. The final concentrations in the assay were 1 nM MAGL and 300 μM 4-Nitrophenylacetate. After shaking (1 m, 2000 rpm) and 5 min incubation at RT, the absorbance at 405 nm was measured for a first time (Molecular Devices, SpectraMax Paradigm). A second measurement was then done after incubation for 80 min at RT. From the two measurements, the slope was calculated by subtracting the first from the second measurement.

Row | Structure (SMILES) | IC50 [µM]
1 | O=C1COc2ccc(C(=O)N3CCC(Cc4ccccc4)CC3)cc2N1 [Example 1, 6-(4-benzylpiperidine-1-carbonyl)-4H-1,4-benzoxazin-3-one] | 0.101
2 | O=C1COc2ccc(C(=O)N3CCN(Cc4ccccc4)CC3)cc2N1 [Example 2, 6-(4-benzylpiperazine-1-carbonyl)-4H-1,4-benzoxazin-3-one] | 3.72
3 | O=C1COc2ccc(C(=O)N3CCC(Cc4ccc(F)cc4)CC3)cc2N1 [Example 3, 6-[4-[(4-fluorophenyl)methyl]piperidine-1-carbonyl]-4H-1,4-benzoxazin-3-one] | 0.088
4 | O=C1COc2ccc(C(=O)N3CCC(Cc4ccc(C(F)(F)F)cc4)CC3)cc2N1 [Example 4, 6-[4-[[4-(trifluoromethyl)phenyl]methyl]piperidine-1-carbonyl]-4H-1,4-benzoxazin-3-one] | 0.0347
5 | COc1ccc(CC2CCN(C(=O)c3ccc4c(c3)NC(=O)CO4)CC2)cc1 [Example 5, 6-[4-[(4-methoxyphenyl)methyl]piperidine-1-carbonyl]-4H-1,4-benzoxazin-3-one] | 0.17
6 | COc1cccc(CC2CCN(C(=O)c3ccc4c(c3)NC(=O)CO4)CC2)c1 [Example 6, 6-[4-[(3-methoxyphenyl)methyl]piperidine-1-carbonyl]-4H-1,4-benzoxazin-3-one] | 0.052
7 | O=C1COc2ccc(C(=O)N3CCC(O)(Cc4ccccc4)CC3)cc2N1 [Example 7, 6-(4-benzyl-4-hydroxypiperidine-1-carbonyl)-4H-1,4-benzoxazin-3-one] | 4.35
8 | O=C1COc2ccc(C(=O)N3CCC(Cc4cccc(F)c4)CC3)cc2N1 [Example 8, 6-[4-[(3-fluorophenyl)methyl]piperidine-1-carbonyl]-4H-1,4-benzoxazin-3-one] | 0.047
9 | O=C1COc2ccc(C(=O)N3CCC(Cc4cc(F)cc(F)c4)CC3)cc2N1 [Example 9, 6-[4-[(3,5-difluorophenyl)methyl]piperidine-1-carbonyl]-4H-1,4-benzoxazin-3-one] | 0.058
10 | O=C1COc2ccc(C(=O)N3CCC(S(=O)(=O)c4ccccc4)CC3)cc2N1 [Example 10, 6-[4-(benzenesulfonyl)piperidine-1-carbonyl]-4H-1,4-benzoxazin-3-one] | 4.22
11 | O=C1COc2ccc(C(=O)N3CCC(N4C[C@H](c5ccccc5)OC4=O)CC3)cc2N1 [Example 11, 6-[4-[(5S)-2-oxo-5-phenyl-1,3-oxazolidin-3-yl]piperidine-1-carbonyl]-4H-1,4-benzoxazin-3-one] | 1.26
12 | O=C1COc2ccc(C(=O)N3CCC(Cc4ccc(Cl)cc4)CC3)cc2N1 [Example 12, 6-[4-[(4-chlorophenyl)methyl]piperidine-1-carbonyl]-4H-1,4-benzoxazin-3-one] | 0.048
13 | O=C1COc2ccc(C(=O)N3CCC(C(=O)c4ccccc4)CC3)cc2N1 [Example 13, 6-(4-benzoylpiperidine-1-carbonyl)-4H-1,4-benzoxazin-3-one] | 0.32
14 | O=C1COc2ccc(C(=O)N3CCC(Oc4ccccc4)CC3)cc2N1 [Example 14, 6-(4-phenoxypiperidine-1-carbonyl)-4H-1,4-benzoxazin-3-one] | 0.99
15 | O=C1COc2ccc(C(=O)N3CCC(Oc4ccc(C(F)(F)F)cc4)CC3)cc2N1 [Example 15, 6-[4-[4-(trifluoromethyl)phenoxy]piperidine-1-carbonyl]-4H-1,4-benzoxazin-3-one] | 0.076
16 | O=C1COc2ccc(C(=O)N3CCC(Cc4cccc(F)c4F)CC3)cc2N1 [Example 16, 6-[4-[(2,3-difluorophenyl)methyl]piperidine-1-carbonyl]-4H-1,4-benzoxazin-3-one] | 0.066

Row | Structure (SMILES) | IC50 [µM]
17 | O=C1COc2ccc(C(=O)N3CCC(Cc4cccc(C(F)(F)F)c4)CC3)cc2N1 [Example 17, 6-[4-[[3-(trifluoromethyl)phenyl]methyl]piperidine-1-carbonyl]-4H-1,4-benzoxazin-3-one] | 0.0395
18 | O=C1COc2ccc(C(=O)N3CCC(Oc4ccccc4)C3)cc2N1 (centres unmarked) [Example 18, 6-(3-phenoxypyrrolidine-1-carbonyl)-4H-1,4-benzoxazin-3-one] | 1.04
19 | O=C1COc2ccc(C(=O)N3CCC(N4C[C@@H](c5ccccc5)OC4=O)CC3)cc2N1 [Example 19, 6-[4-[(5R)-2-oxo-5-phenyl-1,3-oxazolidin-3-yl]piperidine-1-carbonyl]-4H-1,4-benzoxazin-3-one] | 2.49
20 | N#Cc1ccc(CC2CCN(C(=O)c3ccc4c(c3)NC(=O)CO4)CC2)cc1 [Example 20, 4-[[1-(3-oxo-4H-1,4-benzoxazine-6-carbonyl)piperidin-4-yl]methyl]benzonitrile] | 0.37
21 | O=C1COc2ccc(C(=O)N3CCC(Cc4ccccc4-c4ccccc4)CC3)cc2N1 [Example 21, 6-[4-[(2-phenylphenyl)methyl]piperidine-1-carbonyl]-4H-1,4-benzoxazin-3-one] | 0.13
22 | O=C1COc2ccc(C(=O)N3CCC(Cc4ccccn4)CC3)cc2N1 [Example 22, 6-[4-(pyridin-2-ylmethyl)piperidine-1-carbonyl]-4H-1,4-benzoxazin-3-one] | 1.7
23 | O=C1COc2ccc(C(=O)N3CCC(F)(Cc4ccc(Cl)cc4)CC3)cc2N1 [Example 23, 6-[4-[(4-chlorophenyl)methyl]-4-fluoropiperidine-1-carbonyl]-4H-1,4-benzoxazin-3-one] | 0.3
24 | O=C1COc2c(F)cc(C(=O)N3CCC(Cc4ccccc4)CC3)cc2N1 [Example 24, 6-(4-benzylpiperidine-1-carbonyl)-8-fluoro-4H-1,4-benzoxazin-3-one] | 0.14
25 | CN(C(=O)c1ccccc1)C1CCN(C(=O)c2ccc3c(c2)NC(=O)CO3)CC1 [Example 25, N-methyl-N-[1-(3-oxo-4H-1,4-benzoxazine-6-carbonyl)piperidin-4-yl]benzamide] | 0.83
26 | O=C1COc2ccc(C(=O)N3CCC(Cc4ccccc4)CC3)nc2N1 [Example 26, 6-(4-benzylpiperidine-1-carbonyl)-4H-pyrido[3,2-b][1,4]oxazin-3-one] | 2.06
27 | O=C1COc2ccc(C(=O)N3CCC(C(=O)N4CCCCC4)CC3)cc2N1 [Example 27, 6-[4-(piperidine-1-carbonyl)piperidine-1-carbonyl]-4H-1,4-benzoxazin-3-one] | 4.24
28 | O=C1COc2ccc(C(=O)N3CCC(Cc4ccccc4)C3)cc2N1 (centres unmarked) [Example 28, 6-(3-benzylpyrrolidine-1-carbonyl)-4H-1,4-benzoxazin-3-one] | 0.84
29 | O=C1COc2ccc(C(=O)N3CC(Cc4ccc(C(F)(F)F)cc4)C3)cc2N1 [Example 29, 6-[3-[[4-(trifluoromethyl)phenyl]methyl]azetidine-1-carbonyl]-4H-1,4-benzoxazin-3-one] | 0.15
30 | O=C1COc2ccc(C(=O)N3CCC(Cc4cccc(C(F)(F)F)c4)C3)cc2N1 (centres unmarked) [Example 30, 6-[3-[[3-(trifluoromethyl)phenyl]methyl]pyrrolidine-1-carbonyl]-4H-1,4-benzoxazin-3-one] | 0.22
31 | O=C1COc2ccc(C(=O)N3CCC(Cc4ccc(C(F)(F)F)cc4)C3)cc2N1 (centres unmarked) [Example 31, 6-[3-[[4-(trifluoromethyl)phenyl]methyl]pyrrolidine-1-carbonyl]-4H-1,4-benzoxazin-3-one] | 0.4
32 | O=C1COc2ccc(C(=O)N3CCN(C(=O)c4ccc(C(F)(F)F)cc4)CC3)cc2N1 [Example 32, 6-[4-[4-(trifluoromethyl)benzoyl]piperazine-1-carbonyl]-4H-1,4-benzoxazin-3-one] | 2.18
